The record followed here is patent publication US8778871B2 (Takeda Pharmaceutical Company Limited, priority 2004, dated 2014).

Starred links: 1 amine or outer side, 2 acyl side, 3 side chain; linkers in the order of their positions; H or OH if unused. Non-standard residues stand in square brackets, D forms with d. Residues, ends and D or L forms follow the SMILES beside them. X8 = O=C([C@H](Cc1ccc2ccccc2n1)N[*:1])[*:2]; Arg(Me) = CNC(=N)NCCC[C@H](N)C(=O)O; azaGly = NNC(=O)O

T1 sequence (Q969F8 whole entry L364H): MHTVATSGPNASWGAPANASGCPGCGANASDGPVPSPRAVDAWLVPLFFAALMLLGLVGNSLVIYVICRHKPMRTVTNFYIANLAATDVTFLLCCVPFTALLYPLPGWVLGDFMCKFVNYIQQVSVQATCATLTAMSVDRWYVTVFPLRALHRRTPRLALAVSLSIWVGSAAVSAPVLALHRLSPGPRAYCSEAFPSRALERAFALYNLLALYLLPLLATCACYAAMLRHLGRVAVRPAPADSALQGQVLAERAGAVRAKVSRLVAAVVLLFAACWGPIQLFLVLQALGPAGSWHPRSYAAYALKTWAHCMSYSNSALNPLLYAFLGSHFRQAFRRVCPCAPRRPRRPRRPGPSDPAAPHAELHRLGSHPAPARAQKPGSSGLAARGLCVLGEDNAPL

The assay addresses T1, hOT7T175 (Homo sapiens, UniProt Q969F8, L364H).
T1 construct: expressed in transfected cells
The experiment in a line: Intracellular Ca ion level-increasing activity using FLIPR (180 seconds; specific activity to Metastin (1-54)). The assay is classed as cell-based. As to conditions: hOT7T175/CHO, relative to Metastin (1-54) = 1.
On to `CC(C)C[C@H](NC(=O)CNC(=O)[C@H](Cc1ccccc1)NC(=O)[C@H](CO)NC(=O)[C@H](CC(N)=O)NC(=O)[C@H](Cc1c[nH]c2ccccc12)NC(=O)[C@H](CC(N)=O)NC(=O)[C@@H](N)Cc1ccc(O)cc1)C(=O)N[C@@H](CCCNC(=N)N)C(=O)N[C@@H](Cc1ccc2ccccc2n1)C(N)=O` [Compound No. 201] (H-YNWNSFGLR[X8]-NH2), for which the “Specific Act. (intracellular Ca ion level-increasing activity, specific activity to Metastin (1-54))” value is recorded as 1.
For the compound `CC[C@H](C)[C@H](NC(=O)[C@H](N)Cc1ccc(O)cc1)C(=O)N[C@@H](CC(N)=O)C(=O)N[C@@H](CO)C(=O)N[C@@H](Cc1ccccc1)C(=O)NCC(=O)N[C@@H](CC(C)C)C(=O)N[C@@H](CCCNC(=N)NC)C(=O)N[C@@H](Cc1ccccc1)C(N)=O` [Compound No. 228] (H-[dY]INSFGL[Arg(Me)]F-NH2), the “Specific Act. (intracellular Ca ion level-increasing activity, specific activity to Metastin (1-54))” value was 5.
To `CC(C)C[C@H](NC(=O)CNC(=O)[C@H](Cc1ccccc1)NC(=O)[C@H](CO)NC(=O)[C@H](CC(N)=O)NC(=O)[C@H](Cc1c[nH]c2ccccc12)NC(=O)[C@H](CC(N)=O)NC(=O)[C@@H](N)Cc1ccc(O)cc1)C(=O)N[C@@H](CCCNC(=N)N)C(=O)N[C@@H](Cc1cccc(F)c1)C(N)=O` [Compound No. 197] belongs 10; to `CNC(=N)NCCC[C@H](NC(=O)[C@H](CC(C)C)NC(=O)CNC(=O)[C@H](Cc1ccccc1)NC(=O)[C@H](CO)NC(=O)[C@H](CC(N)=O)NC(=O)[C@@H](Cc1c[nH]c2ccccc12)NC(=O)[C@H](N)Cc1ccc(O)cc1)C(=O)N[C@@H](Cc1ccccc1)C(N)=O` [Compound No. 224, D-Tyr-D-Trp-Asn-Ser-Phe-Gly-Leu-Arg(Me)-Phe-NH2] (H-[dY][dW]NSFGL[Arg(Me)]F-NH2), 2.
As for `CC(C)C[C@H](NC(=O)CNC(=O)[C@H](Cc1ccccc1)NC(=O)[C@H](CO)NC(=O)[C@H](CC(N)=O)NC(=O)[C@H](Cc1c[nH]c2ccccc12)NC(=O)[C@H](CC(N)=O)NC(=O)[C@H](Cc1ccc(O)cc1)NC(=O)OCC1c2ccccc2-c2ccccc21)C(=O)N[C@@H](CCCNC(=N)N)C(=O)N[C@@H](Cc1ccccc1)C(N)=O` [Compound No. 31], the “Specific Act. (intracellular Ca ion level-increasing activity, specific activity to Metastin (1-54))” value is 2.
To `CC[C@H](C)[C@H](NC(=O)[C@H](CC(N)=O)NC(=O)[C@H](N)Cc1ccc(O)cc1)C(=O)N[C@@H](CC(N)=O)C(=O)N[C@@H](CO)C(=O)N[C@@H](Cc1ccccc1)C(=O)NNC(=O)N[C@@H](CC(C)C)C(=O)N[C@@H](CCCNC(=N)NC)C(=O)N[C@@H](Cc1ccccc1)C(N)=O` [Compound No. 233, D-Tyr-Asn-Ile-Asn-Ser-Phe-AzaGly-Leu-Arg(Me)-Phe-NH2] (H-[dY]NINSF[azaGly]L[Arg(Me)]F-NH2) belongs 1; to `CNC(=N)NCCC[C@H](NC(=O)[C@H](CC(C)C)NC(=O)CNC(=O)[C@H](Cc1ccccc1)NC(=O)[C@H](CO)NC(=O)[C@H](CC(N)=O)NC(=O)[C@H](CO)NC(=O)[C@H](N)Cc1ccc(O)cc1)C(=O)N[C@@H](Cc1ccccc1)C(N)=O` [Compound No. 226] (H-[dY]SNSFGL[Arg(Me)]F-NH2), 1; to `CNC(=N)NCCC[C@H](NC(=O)[C@H](CC(C)C)NC(=O)CNC(=O)[C@H](Cc1ccccc1)NC(=O)[C@H](CO)NC(=O)[C@H](CC(N)=O)NC(=O)[C@H](Cc1c[nH]c2ccccc12)NC(=O)[C@@H](CC(N)=O)NC(=O)[C@H](N)Cc1ccc(O)cc1)C(=O)N[C@@H](Cc1ccccc1)C(N)=O` [Compound No. 230], 10.
